pEC50, pIC50: −log10 of the molar value. Values joined by “and” are separate entries in the source; they are usually repeats but may differ in a detail not shown here. Equal entries are not always repeated. Active and inactive are the calls of the source.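 Rule for the calls: active = compounds giving half or more protection of infected cells from virus-caused growth loss, again on retest; inactive = the rest.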
Tested on: CEM cells HIV-1 protection, formazan growth assay
Experiment: NCI AIDS Antiviral Assay
Details: for pIC50: measured here: growth of uninfected CEM cells
In short: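 Protection of CEM cells against HIV-1 measured as cell growth via soluble formazan read-out, with five concentrations tested on both infected and uninfected cells; failure to protect may reflect toxicity.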

Row | Compound | pEC50 | pIC50 | outcome
1 | Clc1cccc(-c2nc3cccc4c3n2Cc2ncccc2-4)c1 | < 3.70 | < 3.70 | 
2 | COc1cc(C(O)C2C(=O)OCC2C2(c3ccc4c(c3)OCO4)SCCCS2)cc(OC)c1OC (stereo not drawn) | < 4.44 | < 4.44 | 
3 | O=c1ccn(CC2COC(CP(=O)(O)O)O2)c(=O)[nH]1 (stereo not drawn) | < 3.70 | < 3.70 | 
4 | COc1nc(OC)nc(Sc2ccc(Sc3ccc(Sc4nc(OC)nc(OC)n4)cc3)cc2)n1 | < 4.87 | < 4.87 | 
5 | C[N+]12CCC(c3ccccc3)(CC1)C(O)C2 (stereo not drawn) | < 3.08 | 3.13 | 
6 | CC(=O)O/C=C\OC1CCCC1 | < 3.70 | < 3.70 | 
7 | C1CCSCCCCSCCCCSCCCCSC1 | < 3.99 | < 3.99 | 
8 | COc1cccc(NC(=O)C(=O)C(C(=O)c2ccccc2F)C2OC(=O)c3ccccc32)c1 (stereo not drawn) | < 3.54 | 4.97 | 
9 | Cc1ccc(S(=O)c2ccccc2[N+](=O)[O-])cc1 (stereo not drawn) | < 4.45 | 4.55 | 
10 | Oc1ccc(C=NCC2CCCN3CCCCC23)cc1 (stereo not drawn) | < 3.70 | 4.48 | 
11 | COC(=O)CNCC1OC2OC(C)(C)OC2C1N=[N+]=[N-] (stereo not drawn) | < 3.70 | < 3.70 | 
12 | C=CCSCC1Nc2cc(Cl)c(S(N)(=O)=O)cc2S(=O)(=O)N1C (stereo not drawn) | < 3.63 | 4.04 | 
13 | CCCCOP(=S)(OCCCC)OCCCC |  |  | inactive
14 | O=C(O)C1C2C=CC(C(/C=C/c3ccccc3)N2)C1C(=O)O (stereo not drawn) | < 3.70 | < 3.70 | 
15 | NC(CS/C=C\C(=O)O)C(=O)O (stereo not drawn) | < 4.56 | < 4.56 | 
16 | Oc1[nH]c2ccccc2c1N=NC(=S)Nc1ccc(Cl)cc1 | < 3.70 | 4.61 | 
17 | Cn1c(-c2cccs2)cc(-c2ccsc2)c1-c1cccs1 |  |  | inactive
18 | O=C(CC(=O)N1N=C(c2ccccc2)C(N=Nc2ccccc2Cl)C1=O)Nc1ccccc1Cl (stereo not drawn) | < 4.28 | 4.53 | 
19 | C[C@]12CC[C@H]3[C@@H](CC=C4C[C@@H](O)CC[C@@]43C)[C@@H]1CC[C@@H]2c1cnc[nH]1 | < 3.70 | 3.93 | 
20 | CC(=O)OC1(C)C=Cc2ccccc2/C1=N/S(=O)(=O)c1ccccc1 (stereo not drawn) | < 3.70 | 4.50 | 
21 | O=C1NC(SSC2=NNC3(C(=O)N2)c2ccccc2-c2ccccc23)=NNC12c1ccccc1-c1ccccc12 |  |  | inactive
22 | COc1ccc(C(OCC2OC(n3cnc4c(=O)n(Cc5ccccc5[N+](=O)[O-])nnc43)C(O)C2O)(c2ccccc2)c2ccc(OC)cc2)cc1 (stereo not drawn) |  |  | inactive

Row | Compound | pEC50 | pIC50 | outcome
23 | C[N+](C)(C)CCOP(=O)(O)OP(=O)([O-])OCC1CCC(n2ccc(N)nc2=O)O1 (stereo not drawn) | 6.24 and 6.75 | < 3.70 | 
24 | CN(C)C=Nc1cccc2nsnc12 | < 3.70 | < 3.70 | 
25 | Cc1cc2c(Br)cc(Br)c(O)c2nc1C(=O)c1ccccc1 | < 5.32 | < 5.32 | 
26 | CO/C(=N\N=C\c1ccc(C(F)(F)F)cc1)c1ccncc1 | < 3.93 | 4.16 | 
27 | COc1ccc2c(c1)N(C(C)=O)CN1C(=O)CCC21 (stereo not drawn) |  |  | inactive
28 | OC(c1ccc(C(F)(F)F)cc1)C(F)(F)c1nc2ccccc2o1 (stereo not drawn) | < 3.70 | < 3.70 | 
29 | Cc1ccc(Oc2ccc(C)cc2[N+](=O)[O-])cc1 |  |  | inactive
30 | O=C(/C=C/CC(O)(c1ccccc1)c1ccccc1)Nc1ccccc1Cl | < 4.72 | < 4.72 | 
31 | COc1ccc(/C=C2\CN(C)CC3C2=NN(c2ccccc2)C3c2ccc(OC)cc2)cc1 (stereo not drawn) | < 3.70 | < 3.70 | 
32 | OCC1CC(F)C(n2cnc3c(NC4CC4)ncnc32)O1 (stereo not drawn) | < 3.70 | < 3.70 | 
33 | Cc1[nH]c2nccn2c(=O)c1CCCl | < 3.70 | 4.94 | 
34 | O=Nc1ccc(O)c2ncccc12 |  |  | inactive
35 | O=C1O/C(=C(\Br)c2cccc3ccccc23)c2ccccc21 | < 5.11 | < 5.11 | 
36 | CCOC(=O)CNC(=O)c1[nH]cnc1/N=N/N(C)C |  | 3.03 | inactive
37 | O=S(=O)([O-])[O-].O=c1[nH]cnc2[nH]ncc12.O=c1[nH]cnc2[nH]ncc12.[Zn+2] | < 3.68 | 3.81 | 
38 | COc1ccc(OCc2nc3ccccc3[nH]2)cc1 | < 3.70 | < 3.70 | 
39 | NCCNC(=O)CN(CC(=O)O)C1CCCCC1N(CC(=O)O)CC(=O)O (stereo not drawn) | < 3.70 | < 3.70 | 
40 | CCOC(=O)/C(O)=C(/C=N/C(=S)Nc1c(CC)cccc1CC)C(=O)OCC | < 3.70 | 3.96 | 
41 | COC(=O)C(Cc1nc2ccc(Cl)cc2[nH]c1=O)/C(=N\N)C(=O)Nc1cc(C)c(Cl)cc1S(=O)(=O)O (stereo not drawn) | < 3.35 | 3.94 | 
42 | Cc1ccc(NC(=O)CC(=O)n2nc(-c3ccccc3)c(N=Nc3ccccc3C(=O)O)c2-c2ccccc2)cc1 | < 4.60 | < 4.60 | 
43 | CCOc1ccccc1NC(=O)CCC(=O)OC | < 3.00 | < 3.00 | 
44 | N#C/C(=C\c1cc(Br)c(O)c(Br)c1)c1cccnc1 | < 4.00 | 4.35 | 

Row | Compound | pEC50 | pIC50 | outcome
45 | O=[N+]([O-])c1ccc2c(Nc3ccccc3-c3ccccc3Nc3c4ccccc4nc4cc([N+](=O)[O-])ccc34)c3ccccc3nc2c1 | < 5.64 | < 5.64 | 
46 | CN[C@@H](C)[C@H](NC)c1ccccc1 |  |  | inactive
47 | CCCOc1csc([C@H]2CCC3[C@@H]4CC=C5C[C@@H](O)CC[C@]5(C)C4CC[C@@]32C)n1 (stereo partly drawn) | < 4.92 | < 4.92 | 
48 | CCN(CC)C(=O)COc1cc2c(O)c3c(O)c(C)c4c(c13)C(=O)C(C)(OC=CC(OC)C(C)C(OC(C)=O)C(C)C(O)C(C)C(O)C(C)C=CC=C(C)C(=O)N2)O4 (stereo not drawn) | < 3.81 | < 4.00 | 
49 | CCCCNC(=O)/C(=C\c1ccc(OC)c(OC)c1)NC(=O)c1ccccc1 | < 3.70 | < 3.70 | 
50 | COc1ccc(C2c3[nH]c4ccccc4c3CCN2O)cc1 (stereo not drawn) |  |  | inactive
51 | CN(C)CC(C)(C)C(=O)/C=C/c1ccccc1 |  |  | inactive
52 | O=S(=O)(NCCSSCCNS(=O)(=O)c1ccccc1)c1ccccc1 | < 3.70 | 4.87 | 
53 | O=S(=O)(O)c1ccc(N=Nc2ccc(N=Nc3c(S(=O)(=O)O)cc4cc(S(=O)(=O)O)cc(O)c4c3O)cc2)cc1 |  |  | inactive
54 | CSC(=S)NNC(=O)c1ccncc1 | < 4.92 | < 4.92 | 
55 | COc1cc2c(cc1OC)C(=O)N1CSCC1C(=O)S2 (stereo not drawn) | < 4.30 | < 4.30 | 
56 | Nc1nc(Cl)cc(NCCCCCCCCNc2cc(Cl)nc(N)n2)n1 |  |  | inactive
57 | CCCCCCCCCCCCCCCCN1C(=O)/C(=C\c2ccc(O)cc2)SC1=Nc1ccccc1 | < 4.35 | < 4.35 | 
58 | COc1ccc2c(c1)CCCN2CCCCCCCCCCN(CCC(C)C)CCC(C)C | < 4.11 | 5.02 | 
59 | CC(=O)OC[C@]12[C@H](OC(C)=O)[C@H](OC(C)=O)[C@@H]3C(OC(C)=O)[C@@]14OC3(C)COC(=O)c1cccnc1CCC(C)C(=O)OC([C@H](O)[C@@H]2OC(=O)c1ccccc1)[C@]4(C)O (stereo partly drawn) |  |  | inactive
60 | C/C(=N/NC(=S)N1CCCCCC1)c1cccc(/C(C)=N\NC(=S)N2CCCCCC2)n1 | < 3.70 | 5.44 | 
61 | O=[N+]([O-])c1ccc2nc(Nc3ccccc3)c(Nc3ccccc3)nc2c1 |  |  | inactive
62 | Brc1ccc(C2CC3(c4ccccc4)ON=C(c4ccccc4)N3c3ccccc3S2)cc1 (stereo not drawn) | < 3.70 | 3.76 | 
63 | O=C(NC1CCCCCC1)C1C(=O)N(C2CCCCCC2)C(=O)/C1=N\O (stereo not drawn) |  |  | inactive
64 | COC1=CC2OC3OC(=O)CC3C2C(OCc2ccccc2)=C1 (stereo not drawn) | < 4.50 | < 4.50 | 
65 | COC(=O)CCCC1(CCCC(=O)OC)CCCCCCCCC(CCCC(=O)OC)(CCCC(=O)OC)C(=O)C1=O | < 3.70 | 4.45 | 
66 | O=C1/C(=C/c2ccc(O)cc2)CCc2ccc([N+](=O)[O-])cc21 | < 3.70 | 4.09 | 

Row | Compound | pEC50 | pIC50 | outcome
67 | NC(=O)C#CC#CC#CCO | < 3.05 | 6.32 | 
68 | O=C(NNc1nc2ccc(Cl)cc2s1)c1cnc2n(c1=O)CCS2 | < 3.70 | 3.99 | 
69 | COC(=O)/C=C1\SC(OC)(N(C)c2ccccc2)N(C)C1=O (stereo not drawn) | < 3.81 | 3.84 | 
70 | C=CCNC(=O)C(O)C(O)C(=O)NCC=C (stereo not drawn) | < 2.96 | < 2.96 | 
71 | O=C1NC2CSC(CCCCC(=O)ON3C(=O)CCC3=O)C2N1 (stereo not drawn) | < 3.13 | 3.91 | 
72 | COc1cc(-c2ccc(N=Nc3ccc4c(S(=O)(=O)O)cc(S(=O)(=O)O)c(N)c4c3O)c(OC)c2)ccc1N=Nc1ccc2c(S(=O)(=O)O)cc(S(=O)(=O)O)c(N)c2c1O | 5.30 | 4.31 | active
73 | CN1CCN(C(=S)N(C(=O)c2cccs2)C2CCCCC2)CC1 | < 3.71 | 4.04 | 
74 | O=P1(Cc2ccccc2)C(c2ccccc2)=C(O)C2CCCC21 (stereo not drawn) | < 3.95 | < 3.95 | 
75 | CCOC(=O)Nc1cc2c(c(N)n1)N=C(c1ccc(Cl)cc1Cl)CN2 | < 5.00 | 7.77 | 
76 | NC(=O)NNC(O)(C(F)(F)F)C(F)(F)F | < 3.70 | < 3.70 | 
77 | C=C(COC(=O)CC(C)(C)CC(=O)O)[C@@H]1CC[C@]2(COC(=O)CC(C)(C)CC(=O)O)CC[C@]3(C)[C@H](CC[C@@H]4[C@@]5(C)CC[C@H](OC(=O)CC(C)(C)CC(=O)O)C(C)(C)[C@@H]5CC[C@]43C)[C@@H]12 | < 3.70 | 4.61 | 
78 | CCC12C=CCN3CCC4(c5cc(C6(C(=O)OC)CCCCCc7c6[nH]c6ccccc76)c(OC)cc5N(C)C4C(O)(C(=O)OC)C1OC(C)=O)C32 (stereo not drawn) | < 4.60 | 5.36 | 
79 | Cc1cc(/C=C\c2ccnc3ccccc23)ccc1N(C)C |  |  | inactive
80 | Cc1ccc(S(=O)OCc2c(C)c(C)c(COS(=O)c3ccc(C)cc3)c(C)c2C)cc1 (stereo not drawn) |  |  | inactive
81 | COc1c(C(CC(C)C)OC(C)=O)ccc2c1C(=O)OCc1cc(C)cc(O)c1O2 (stereo not drawn) | < 3.70 | 4.98 | 
82 | C=C=C(CC(CC(=C)Br)(C(=O)OC)C(=O)OC)S(=O)(=O)c1ccccc1 | < 3.70 | 5.84 | 
83 | COc1ccc(/C=C2/SC(=Nc3ccccc3)N(NC(=O)Cc3ccccc3)C2=O)c(OC)c1 | < 4.12 | < 4.12 | 
84 | CCN(CC)CCCNc1cnnc2cc(Cl)ccc12 | < 3.44 | 4.08 | 
85 | Cc1nn(C(=O)CC(=O)Nc2ccccc2Cl)c(C)c1N=Nc1ccccc1F |  |  | inactive
